Test results from PubChem BioAssay AID1259407 (Chemical Carcinogenesis Research Information System (CCRIS), 2018).
Calls of active or inactive are those of the source. How the calls were made is not given here.

Test system: CCRIS mutagenicity, Ames/micronucleus/aberration tests
Assay: CCRIS mutagenicity studies

Measured: mutagenic call

Cc1ccccc1N
active: Test System: CHINESE HAMSTER V-79, Strain/Indicator: V-79/6-THIOGUANINE, Metabolic Activation: NONE, Method: REPLATING active; positive | Test System: UDS RAT HEPATOCYTES, Strain/Indicator: THY INCORP, Metabolic Activation: NONE, Method: LIQUID SCINTILLATION COUNTING active; positive
inactive: Test System: AMES SALMONELLA TYPHIMURIUM, Strain/Indicator: TA104, Metabolic Activation: HAMSTER, LIVER, S-9, SODIUM PHENOBARBITAL AND 5,6-BENZOFLAVONE, Method: PREINCUBATION inactive; negative | Test System: AMES SALMONELLA TYPHIMURIUM, Strain/Indicator: TA104, Metabolic Activation: NONE, Method: PREINCUBATION inactive; negative | Test System: AMES SALMONELLA TYPHIMURIUM, Strain/Indicator: TA1535, Metabolic Activation: HAMSTER LIVER S-9, AROCLOR 1254 (10%), Method: PREINCUBATION inactive; negative | Test System: AMES SALMONELLA TYPHIMURIUM, Strain/Indicator: TA1535, Metabolic Activation: HAMSTER, LIVER, S-9, AROCLOR 1254 (10%), Method: PREINCUBATION inactive; negative | Test System: AMES SALMONELLA TYPHIMURIUM, Strain/Indicator: TA1535, Metabolic Activation: HAMSTER, LIVER, S-9, SODIUM PHENOBARBITAL AND 5,6-BENZOFLAVONE, Method: PREINCUBATION inactive; negative | Test System: AMES SALMONELLA TYPHIMURIUM, Strain/Indicator: TA1535, Metabolic Activation: NONE, Method: PREINCUBATION inactive; negative | Test System: AMES SALMONELLA TYPHIMURIUM, Strain/Indicator: TA1535, Metabolic Activation: NONE, Method: STANDARD PLATE inactive; negative | Test System: AMES SALMONELLA TYPHIMURIUM, Strain/Indicator: TA1535, Metabolic Activation: RAT LIVER S-9, AROCLOR 1254 (10 OR 30%), Method: PREINCUBATION inactive; negative | Test System: AMES SALMONELLA TYPHIMURIUM, Strain/Indicator: TA1535, Metabolic Activation: RAT, LIVER, S-9, AROCLOR 1254 (10%), Method: PREINCUBATION inactive; negative | Test System: AMES SALMONELLA TYPHIMURIUM, Strain/Indicator: TA1535, Metabolic Activation: RAT, LIVER, S-9, AROCLOR 1254, Method: STANDARD PLATE inactive; negative | Test System: AMES SALMONELLA TYPHIMURIUM, Strain/Indicator: TA1537, Metabolic Activation: HAMSTER, LIVER, S-9, AROCLOR 1254 (10%), Method: PREINCUBATION inactive; negative | Test System: AMES SALMONELLA TYPHIMURIUM, Strain/Indicator: TA1537, Metabolic Activation: HAMSTER, LIVER, S-9, SODIUM PHENOBARBITAL AND 5,6-BENZOFLAVONE, Method: PREINCUBATION inactive; negative | Test System: AMES SALMONELLA TYPHIMURIUM, Strain/Indicator: TA1537, Metabolic Activation: NONE, Method: PREINCUBATION inactive; negative | Test System: AMES SALMONELLA TYPHIMURIUM, Strain/Indicator: TA1537, Metabolic Activation: NONE, Method: STANDARD PLATE inactive; negative | Test System: AMES SALMONELLA TYPHIMURIUM, Strain/Indicator: TA1537, Metabolic Activation: RAT, LIVER, S-9, AROCLOR 1254 (10%), Method: PREINCUBATION inactive; negative | Test System: AMES SALMONELLA TYPHIMURIUM, Strain/Indicator: TA1537, Metabolic Activation: RAT, LIVER, S-9, AROCLOR 1254, Method: STANDARD PLATE inactive; negative | Test System: AMES SALMONELLA TYPHIMURIUM, Strain/Indicator: TA1538, Metabolic Activation: NONE, Method: STANDARD PLATE inactive; negative | Test System: AMES SALMONELLA TYPHIMURIUM, Strain/Indicator: TA1538, Metabolic Activation: RAT, LIVER, S-9, AROCLOR 1254, Method: STANDARD PLATE inactive; negative | Test System: CHINESE HAMSTER OVARY, Strain/Indicator: CHO/6-THIOGUANINE, Metabolic Activation: HAMSTER EMBRYO CELL-MEDIATED inactive; negative | Test System: CHINESE HAMSTER OVARY, Strain/Indicator: CHO/6-THIOGUANINE, Metabolic Activation: NONE inactive; negative | Test System: CHINESE HAMSTER OVARY, Strain/Indicator: CHO/OUABAIN, Metabolic Activation: NONE inactive; negative | Test System: CHINESE HAMSTER V-79, Strain/Indicator: V-79 (HGPRT)/6-THIOGUANINE, Metabolic Activation: NONE inactive; negative | Test System: CHINESE HAMSTER V-79, Strain/Indicator: V-79 (HGPRT)/6-THIOGUANINE, Metabolic Activation: RAT, LIVER, S-9, PHENOBARBITAL AND BETA-NAPHTHOFLAVONE inactive; negative | Test System: CHINESE HAMSTER V-79, Strain/Indicator: V-79/6-THIOGUANINE, Metabolic Activation: RAT, LIVER, S-9, PHENOBARBITAL AND 5,6-BENZOFLAVONE, Method: REPLATING inactive; negative | Test System: CHINESE HAMSTER V-79, Strain/Indicator: V-79/OUABAIN, Metabolic Activation: NONE inactive; negative | Test System: CHINESE HAMSTER V-79, Strain/Indicator: V-79/OUABAIN, Metabolic Activation: RAT, LIVER, S-15, PHENOBARBITAL AND 5,6-BENZOFLAVONE inactive; negative | Test System: E. COLI, Strain/Indicator: WP2UVRA/PKM101, Metabolic Activation: HAMSTER, LIVER, S-9, SODIUM PHENOBARBITAL AND 5,6-BENZOFLAVONE, Method: PREINCUBATION inactive; negative | Test System: E. COLI, Strain/Indicator: WP2UVRA/PKM101, Metabolic Activation: NONE, Method: PREINCUBATION inactive; negative | Test System: E. COLI, Strain/Indicator: WP2UVRA, Metabolic Activation: HAMSTER, LIVER, S-9, SODIUM PHENOBARBITAL AND 5,6-BENZOFLAVONE, Method: PREINCUBATION inactive; negative | Test System: E. COLI, Strain/Indicator: WP2 UVRA, Metabolic Activation: NONE, Method: PREINCUBATION inactive; negative | Test System: E. COLI, Strain/Indicator: WP2UVRA, Metabolic Activation: NONE, Method: PREINCUBATION inactive; negative | Test System: E. COLI, Strain/Indicator: WP2 UVRA, Metabolic Activation: RAT, LIVER, S-9, PHENOBARBITAL AND 5,6-BENZOFLAVONE, Method: PREINCUBATION inactive; negative | Test System: MOUSE LYMPHOMA, Strain/Indicator: L5178Y (TK+/+)/OUABAIN, Metabolic Activation: NONE, Method: SUSPENSION/PLATE inactive; negative | Test System: MOUSE LYMPHOMA, Strain/Indicator: L5178Y (TK+/+)/OUABAIN, Metabolic Activation: RAT LIVER S-9, AROCLOR 1254, Method: SUSPENSION/PLATE inactive; negative | Test System: MOUSE LYMPHOMA, Strain/Indicator: L5178Y (TK+/-)/TRIFLUROTHYMIDINE, Metabolic Activation: NONE, Method: SUSPENSION/PLATE inactive; negative | Test System: MOUSE LYMPHOMA, Strain/Indicator: L5178Y (TK+/-)/TRIFLUROTHYMIDINE, Metabolic Activation: RAT LIVER S-9, AROCLOR 1254, Method: SUSPENSION/PLATE inactive; negative | Test System: MOUSE LYMPHOMA, Strain/Indicator: L5178Y (TK+/TK-), Metabolic Activation: NONE, Method: SUSPENSION/PLATE inactive; negative | Test System: MOUSE LYMPHOMA, Strain/Indicator: L5178Y (TK+/TK-), Metabolic Activation: RAT, LIVER, S-9, Method: SUSPENSION/PLATE inactive; negative
